Assay results reported in the CheMixHub ionic liquid set.
± gives the uncertainty stated by the source.

Assay: xn = mol fraction of the nth substance listed

CC(C)O + CC[n+]1ccn(CCOC)c1.N#C[S-]
100 kPa, x2 = 0
Conditions | viscosity [mPa·s]
288.15 K | 2.83 ± 0.15
293.15 K | 2.42 ± 0.13
298.15 K | 2.07 ± 0.11
303.15 K | 1.79 ± 0.098
308.15 K | 1.552 ± 0.085
313.15 K | 1.352 ± 0.074
318.15 K | 1.183 ± 0.065

CCCCO + CC[n+]1ccn(CCOC)c1.N#C[S-]
100 kPa, x2 = 0
Conditions | viscosity [mPa·s]
288.15 K | 3.36 ± 0.18
293.15 K | 2.94 ± 0.16
298.15 K | 2.58 ± 0.14
303.15 K | 2.27 ± 0.12
308.15 K | 2.01 ± 0.11
313.15 K | 1.78 ± 0.097
318.15 K | 1.585 ± 0.087

CC(C)O + CC[n+]1ccn(CCOC)c1.O=S(=O)([O-])C(F)(F)F
101 kPa, x2 = 0
Conditions | viscosity [mPa·s]
288.15 K | 2.806 ± 0.06
293.15 K | 2.397 ± 0.051
298.15 K | 2.059 ± 0.044
303.15 K | 1.777 ± 0.038
308.15 K | 1.542 ± 0.033
313.15 K | 1.344 ± 0.029
318.15 K | 1.176 ± 0.025

CCCCCCCC[n+]1ccn(C)c1.F[P-](F)(F)(F)(F)F + CN(C)C=O
viscosity [mPa·s], 101 kPa
Conditions | 293.15 K | 303.15 K | 313.15 K | 323.15 K | 333.15 K | 343.15 K | 353.15 K | 363.15 K
x1 = 0.002835 | 0.969 ± 0.025 | 0.865 ± 0.024 | 0.776 ± 0.024 | 0.705 ± 0.022 | 0.644 ± 0.02 | 0.591 ± 0.014 | 0.546 ± 0.016 | 0.505 ± 0.014
x1 = 0.00569 | 0.994 ± 0.023 | 0.887 ± 0.02 | 0.798 ± 0.018 | 0.723 ± 0.017 | 0.659 ± 0.015 | 0.604 ± 0.014 | 0.556 ± 0.013 | 0.514 ± 0.012
x1 = 0.01089 | 1.044 ± 0.024 | 0.929 ± 0.021 | 0.838 ± 0.019 | 0.754 ± 0.017 | 0.686 ± 0.016 | 0.628 ± 0.014 | 0.578 ± 0.013 | 0.533 ± 0.012
x1 = 0.01648 | 1.097 ± 0.025 | 0.973 ± 0.022 | 0.879 ± 0.02 | 0.786 ± 0.018 | 0.714 ± 0.016 | 0.652 ± 0.015 | 0.599 ± 0.014 | 0.552 ± 0.013
x1 = 0.02114 | 1.144 ± 0.026 | 1.013 ± 0.023 | 0.916 ± 0.021 | 0.815 ± 0.018 | 0.739 ± 0.017 | 0.674 ± 0.015 | 0.617 ± 0.014 | 0.569 ± 0.013
x1 = 0.02677 | 1.201 ± 0.027 | 1.059 ± 0.024 | 0.961 ± 0.022 | 0.848 ± 0.019 | 0.768 ± 0.018 | 0.699 ± 0.016 | 0.639 ± 0.015 | 0.588 ± 0.014
